According to patent publication US12497376B2, “Compound [2-(dimethylamino)-2-phenylbutyl]-3,4,5-trimethoxybenzoate 4-methyl-2H-chromen-2-on-7-yl sulphate and use thereof” (LTD “VALENTA—INTELLEKT”, priority 2020, dated 2025):

System: male mice of the C57 BL/6 line
Test: von Frey filament test (mechanical allodynia) in the model of visceral pain induced by TNBS colitis
Assay type: in vivo
Details: for Mechanical allodynia intensity, g (mean ± standard error of the mean): oral once daily from day 3 after TNBS, von Frey test on Day 28, placebo 2.0 ± 0.5
Experimental: In the experiments, 13-week old male mice of the C57 BL/6 line were used. Sixty (60) animals were randomly distributed into four (4) groups of equal number (N=15) characterized by the dosage of the administered compound.
The study was conducted for three different doses of the compound of Formula I. A group of mice receiving only the carrier (starch solution) served as the control group (placebo group).
Colitis was induced by introducing 0.1 mL of TNBS (trinitrobenzene sulfonate) (130 μg/mL in 30% EtOH) into the large intestine through a polyethylene catheter introduced by 3 cm into the anus of mice anesthetized with isoflurane. Then, the mice were arranged individually, and changes in the body weight, appearance and behavior were observed daily. A histological study of the mucosa structure, cell infiltrate, intestinal crypt abscesses and goblet cells confirmed significant damage caused by the TNBS introduction on Day 3 and, in a significant degree, on Day 7 [6].
The preparations were introduced orally in three days after the TNBS introduction and then once daily for the whole study period.
To assess pain behavior, the von Frey test with filaments (appearance of mechanical allodynia) on Day 28 after the TNBS introduction.
The animals were put into an acrylic chamber (15×15×15 cm) raised above the ground with a wire mesh on the bottom. Before starting the tests, the animals were left in the chamber for 5-10 minutes for adaptation. Then, the abdominal cavity of the animal was stimulated with von Frey calibrated filaments (or fibers) (BIOSEB, USA). The filaments were a set of 10 standard plastic fibers of increasing diameters. The fiber rigidity, which is expressed as a minimal force required to flex a fiber, was increased in such calibration logarithmically, with absolute values from 0.6 g to 26 g. Sensitivity threshold of each mouse was determined in three repeats (6 touches in total with 10-second interval for each filament; the interval between successive touches with different filaments was 2 minutes). The abdominal surface was poked with a force required to flex the fiber, and the fiber was held in that position for 6-8 seconds. The positive response was recorded, if the animal sharply winced during touching. A sensitivity threshold was determined by a minimal pressure causing the wincing reflex reaction (4 times of 6 touches).
An average score received in a corresponding test and a standard error of the mean for each value were calculated for each study group (n=15).

[2-(dimethylamino)-2-phenylbutyl]-3,4,5-trimethoxybenzoate 4-methyl-2H-chromen-2-on-7-yl sulphate [Compound of Formula I]
Mechanical allodynia intensity, g (mean ± standard error of the mean) (dose 10 mg/day (recalculated for a human), group 2, n=15): 10.0 ± 0.5 g | Mechanical allodynia intensity, g (mean ± standard error of the mean) (dose 300 mg/day (recalculated for a human), group 3, n=15): 21.4 ± 0.9 g | Mechanical allodynia intensity, g (mean ± standard error of the mean) (dose 1,800 mg/day (recalculated for a human), group 4, n=15): 23.1 ± 1.0 g | Indices of mechanical allodynia versus placebo (groups receiving the compound (10, 300, 1,800 mg/day), p < 0.05 versus placebo): significantly lower
